Test results published in ChEMBL document CHEMBL1146328, “Binding mode and affinity studies of DNA-binding agents using topoisomerase I DNA unwinding assay” (Bioorg Med Chem Lett, 2007).

Assays:
[1] = Partition coefficient, log P of the compound; assay type: physicochemical; conditions: octanol/water
Homo sapiens [2] = species on record: Homo sapiens; experiment: Binding affinity to DNA by spectrophotometric titration method
DNA = experiment: Binding affinity to calf thymus DNA by ITC method; assay type: nucleic-acid assay; conditions: Bos taurus
[3] = target: T1, DNA topoisomerase 1 (Homo sapiens) (UniProt P11387); experiment: Binding affinity to topoisomerase 1 assessed as concentration needed for complete DNA re-supercoiling by Topo1 assay
T1 sequence (whole entry): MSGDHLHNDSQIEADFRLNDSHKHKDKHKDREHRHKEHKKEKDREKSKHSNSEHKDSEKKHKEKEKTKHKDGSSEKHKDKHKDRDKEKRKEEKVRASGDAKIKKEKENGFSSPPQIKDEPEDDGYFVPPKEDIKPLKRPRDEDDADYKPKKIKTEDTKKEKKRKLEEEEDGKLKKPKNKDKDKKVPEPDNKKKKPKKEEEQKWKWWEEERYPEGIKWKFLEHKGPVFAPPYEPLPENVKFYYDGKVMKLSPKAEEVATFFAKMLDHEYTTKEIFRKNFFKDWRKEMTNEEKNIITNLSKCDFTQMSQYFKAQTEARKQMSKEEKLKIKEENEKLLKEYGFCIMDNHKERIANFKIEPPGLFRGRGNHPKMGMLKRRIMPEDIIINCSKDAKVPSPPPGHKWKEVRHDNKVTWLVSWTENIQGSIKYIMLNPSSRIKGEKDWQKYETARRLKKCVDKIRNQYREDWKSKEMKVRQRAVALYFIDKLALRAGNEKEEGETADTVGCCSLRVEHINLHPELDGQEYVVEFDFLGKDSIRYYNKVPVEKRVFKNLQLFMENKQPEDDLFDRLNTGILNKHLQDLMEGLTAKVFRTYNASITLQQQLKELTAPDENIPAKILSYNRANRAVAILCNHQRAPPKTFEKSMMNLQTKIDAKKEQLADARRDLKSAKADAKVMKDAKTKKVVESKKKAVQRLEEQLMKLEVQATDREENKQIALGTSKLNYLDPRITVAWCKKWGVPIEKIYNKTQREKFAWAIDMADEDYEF

Homo sapiens [4] = species on record: Homo sapiens; experiment: Binding affinity to DNA assessed as thermal melting temperature

logP [1]	K (Homo sapiens [2])	K (DNA)	Activity [3]	ΔTm (Homo sapiens [4])	SMILES
-2.5	5 10^5/M	12.2 10^5/M	3 µM	7.6 °C	C[N+](C)(C)CCCN1C(=O)c2ccc3c4c(ccc(c24)C1=O)C(=O)N(CCC[N+](C)(C)C)C3=O
-0.9	1 10^5/M	5.7 10^5/M	5 µM	4.6 °C	CCCC[N+](C)(CCCC)CCCN1C(=O)c2ccc3c4c(ccc(c24)C1=O)C(=O)N(CCC[N+](C)(CCCC)CCCC)C3=O
